In brackets after ≈: the same amount, converted by molar mass. Values belong to the compound of their own block, whether it stands above or below them. Numbered stars: 1 amine (or outer) side, 2 acyl side, 3 side chain; on linkers, the order of the positions; unused ones are H or OH. Square brackets hold non-standard residues; d marks the D form. Peptide text beside a SMILES is read from it. ξ: configuration not given here. X1 = N=C1NCC(C(O)C(N[*:1])C(=O)[*:2])N1C1OC(CO)C(O)C(O)C1O; ξEnduracididine(βξ-OH,4'ξ) = N=C1NCC(C(O)C(N)C(=O)O)N1; ξCha(3ξ-Me) = CC(C1CCCCC1)C(N)C(=O)O; ξPhe(βξ-Me) = CC(c1ccccc1)C(N)C(=O)O; Cha = N[CH](CC1CCCCC1)C(=O)O
Legend:
[1] = Anatomic pathology (heart and kidney histopathology) in mice; format: in vivo, CD-1 mice; conditions: 20 mg/kg intravenously daily for 9 days, microscopic histopathology on day 10
Experimental: 20-day-old CD-1 mice were divided into a vehicle control group (5 mice) and a treatment group (5 mice). Samples of glycopeptide antibiotics were administered at 20 mg/kg intravenously daily for 9 days.
Samples of tissues from necropsied mice were formalin-fixed, paraffin-embedded, sectioned, stained with hematoxylin and eosin, and examined microscopically. Histopathologic findings were recorded. These findings were subjectively graded on a scale corresponding to slight, mild, moderate, marked and severe as compared to untreated controls.

Enterococcus sp. = assay: In vitro antibacterial evaluation: minimum inhibitory concentration (MIC), broth dilution method; format: cell-based; conditions: broth dilution, 18 hours at 35° C.
Outline: (§1)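 Test strains, among them recent clinical isolates carrying methicillin, penicillin and/or vancomycin resistance, were inoculated at 5×10^5 CFU/mL. A broth dilution series spanning 64-0.06 μg/mL in Muller-Hinton II […] (NCCLS M7-A2) defined the MIC as the lowest growth-inhibiting concentration.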

Streptococcus sp. = assay: as above; format: cell-based; conditions: broth dilution, 18 hours at 35° C.
Outline: as §1

Staphylococcus sp. = assay: as above; format: cell-based; conditions: broth dilution, 18 hours at 35° C.
Outline: as §1

Escherichia coli = assay: as above; format: cell-based; conditions: broth dilution, 18 hours at 35° C.
[2] = test system: Staphylococcus aureus-SMITH (GC 4543); assay: Acute lethal infection in mice (ED50); format: in vivo; conditions: female CD-1 mice, intraperitoneal challenge, intravenous dose 30 min. after infection, 7 day survival ratios
Experimental: The therapeutic effects of glycopeptide antibiotics of Formula I are determined against acute lethal infections with S. aureus (strain Smith), a penicillin resistant strain of S. pneumoniae (strain GC 1894), and a vancomycin resistant strain of E. fecalis (strain GC 6189 and GC 2246). Female mice, CD-1 (Charles River Laboratories), 20 +1-2 gm, are challenged by intraperitoneal injection of sufficient bacteria (suspended in Trypticase Soy Broth or hog gastric mucin) to kill non-treated controls within 24-48 hr. Antibacterial agents, contained in 0.2 mL of saline or 5% dextrose solution, are administered intravenously 30 min. after infection. Five mice are treated at each dose level. The 7 day survival ratios from 3 separate tests are pooled for calculation of median effective dose (ED50).

Compound: N=C1NCC(C(O)C2NC(=O)[C@H](C(O)C3CNC(=N)N3)NC(=O)C(Cc3ccc(O)cc3)NC(=O)[C@H](Cc3ccccc3)NC(=O)CNC(=O)[C@H](CO)NC2=O)N1 (stereo in doubt) [Example 280a, Cyclo[glycylphenylalanyltyrosyl-3-(2-iminoimidazolidin-4-yl)seryl-3-(2-iminoimidazolidin-4-yl)serylseryl]]
- Anatomical Pathology (Day 10), Heart [1]: 0
- Anatomical Pathology (Day 10), Kidney [1]: ++

- MIC Enterococcus faecalis (GC 2242) (Enterococcus sp.; Enterococcus faecalis (GC 2242)): 8 µg/mL (≈ 8.27 µM)
- MIC Enterococcus faecalis (GC 2691) (Enterococcus sp.; Enterococcus faecalis (GC 2691)): 8 µg/mL (≈ 8.27 µM)
- MIC Enterococcus faecalis (GC 3059) (Enterococcus sp.; Enterococcus faecalis (GC 3059)): 8 µg/mL (≈ 8.27 µM)
- MIC Enterococcus avium (GC 4558) (Enterococcus sp.): 4 µg/mL (≈ 4.14 µM)
- MIC Enterococcus faecalis (ATCC 29212) (Enterococcus sp.): 8 µg/mL (≈ 8.27 µM)
- MIC Enterococcus faecalis (GC 2242) (Enterococcus sp.): 8 µg/mL (≈ 8.27 µM)
- MIC Enterococcus faecalis (GC 2691) (Enterococcus sp.): 8 µg/mL (≈ 8.27 µM)
- MIC Enterococcus faecalis (GC 3059) (Enterococcus sp.): 8 µg/mL (≈ 8.27 µM)
- MIC Enterococcus faecalis (GC 4552) (Enterococcus sp.): 8 µg/mL (≈ 8.27 µM)
- MIC Enterococcus faecalis (GC 4553) (Enterococcus sp.): 4 µg/mL (≈ 4.14 µM)
- MIC Enterococcus faecalis (GC 4554) (Enterococcus sp.): 16 µg/mL (≈ 16.5 µM)
- MIC Enterococcus faecalis (GC 6189) (Enterococcus sp.): 4 µg/mL (≈ 4.14 µM)
- MIC Enterococcus faecium (GC 2243) (Enterococcus sp.): 2 µg/mL (≈ 2.07 µM)
- MIC Enterococcus faecium (GC 4556) (Enterococcus sp.): 8 µg/mL (≈ 8.27 µM)
- MIC Enterococcus faecium (GC 4557) (Enterococcus sp.): 2 µg/mL (≈ 2.07 µM)
- MIC Streptococcus agalactiae (GC 4564) (Streptococcus sp.; Streptococcus agalactiae (GC 4564)): 1 µg/mL (≈ 1.03 µM)
- MIC Streptococcus pneumoniae (ATCC 6301) (Streptococcus sp.; Streptococcus pneumoniae (ATCC 6301)): 1 µg/mL (≈ 1.03 µM)
- MIC Streptococcus pneumoniae (GC 1894) (Streptococcus sp.; Streptococcus pneumoniae (GC 1894)): 1 µg/mL (≈ 1.03 µM)
- MIC Streptococcus pneumoniae (GC 4565) (Streptococcus sp.; Streptococcus pneumoniae (GC 4565)): 4 µg/mL (≈ 4.14 µM)
- MIC Streptococcus pyogenes (GC 4563) (Streptococcus sp.; Streptococcus pyogenes (GC 4563)): 1 µg/mL (≈ 1.03 µM)
- MIC Streptococcus agalactiae (GC 4564) (Streptococcus sp.): 1 µg/mL (≈ 1.03 µM)
- MIC Streptococcus pneumoniae (ATCC 6301) (Streptococcus sp.): 1 µg/mL (≈ 1.03 µM)
- MIC Streptococcus pneumoniae (GC 1894) (Streptococcus sp.): 1 µg/mL (≈ 1.03 µM)
- MIC Streptococcus pneumoniae (GC 4565) (Streptococcus sp.): 4 µg/mL (≈ 4.14 µM)
- MIC Streptococcus pyogenes (GC 4563) (Streptococcus sp.): 1 µg/mL (≈ 1.03 µM)
- MIC Coagulase Negative Staphylococcus (GC 4547) (Staphylococcus sp.): 2 µg/mL (≈ 2.07 µM)
- MIC Coagulase Negative Staphylococcus (GC 4548) (Staphylococcus sp.): 2 µg/mL (≈ 2.07 µM)
- MIC Coagulase Negative Staphylococcus (GC 4549) (Staphylococcus sp.): 1 µg/mL (≈ 1.03 µM)
- MIC Coagulase Negative Staphylococcus (GC 4551) (Staphylococcus sp.): 2 µg/mL (≈ 2.07 µM)
- MIC Staphylococcus aureus SMITH (GC 4543) (Staphylococcus sp.): 2 µg/mL (≈ 2.07 µM)
- MIC Staphylococcus aureus-SMITH (GC 4543) (Staphylococcus sp.; strain SMITH GC 4543): 2 µg/mL (≈ 2.07 µM)
- MIC Escherichia coli (GC 4560) (Escherichia coli): 4 µg/mL (≈ 4.14 µM)
Compound: CC(C1CCCCC1)C1NC(=O)CNC(=O)C(CO)NC(=O)C(C(O)C2CNC(=N)N2C2OC(CO)C(O)C(O)C2O)NC(=O)C(C(O)C2CNC(=N)N2)NC(=O)C(CC2CCCCC2)NC1=O (stereo not drawn) [Example 53, Cyclo[3-cyclohexylalanyl-3-(2-iminoimidazolidin-4-yl)seryl-3-(3-hexopyranosyl-2-iminoimidazolidin-4-yl)serylserylglycyl-3-cyclohexyl-2-aminobutanoyl]] (cyclo(G[ξCha(3ξ-Me)][Cha][ξEnduracididine(βξ-OH,4'ξ)][X1]S); configuration not given here)
- MIC Staphylococcus haemolyticus (GC 4546) (Staphylococcus sp.): 1 µg/mL (≈ 1.03 µM)

Compound: CC(c1ccccc1)C1NC(=O)CNC(=O)C(CO)NC(=O)C(C(O)C2CNC(=N)N2C2OC(CO)C(O)C(O)C2O)NC(=O)C(C(O)C2CNC(=N)N2)NC(=O)C(Cc2ccc(O)cc2)NC1=O (stereo not drawn) [Example 55, Cyclo[glycyl-β-methylphenylalanyltyrosyl-3-(2-iminoimidazolidin-4-yl)seryl-3-(3-hexopyranosyl-2-iminoimidazolidin-4-yl)serylseryl]] (cyclo(G[ξPhe(βξ-Me)]Y[ξEnduracididine(βξ-OH,4'ξ)][X1]S); configuration not given here)
- median effective dose (ED50), Staphylococcus aureus-SMITH (GC 4543) [2]: >8
